Laboratory results reported in US11771735B2, “Composition for improving or preventing nonalcoholic fatty liver” (KOHJIN LIFE SCIENCES CO., LTD., priority 2015, dated 2023).

What was measured:
[1] = tested on: Mice (C57/B6J) fed with high-fat food; conditions: 20 weeks old
Source text: Mice (C57/B6J, 8 weeks old male) were divided into 4 groups (5 animals each), and the first group (DB) was freely fed with ordinary food (CertifiedDiet “MF” manufactured by Oriental Yeast Co., ltd.). The second group (HFD) was freely fed with high-fat food (High Fat Diet 32, manufactured by CLEA Japan, Inc.), […].
When the mouse was 20 weeks old, the body weight, the liver weight, the serum aspartate aminotransferase (AST), the alanine aminotransferase (ALT), the serum triglyceride (TG), the free fatty acid value (FFA) and the total cholesterol value (T-cho) were measured.

[2] = tested on: subjects who had NAFLD in 31 IU/L or more of ALT; conditions: Case IDs 1 to 9 (group affected); at least one week after initiation; oral 300 mg per day
[3] = HFD6 (6 mg/kg/day) and HFD60 (60 mg/kg/day) groups in comparison to HFD group
[4] = high-fat food mice, glutathione 6 and 60 mg/kg/day in water

N[C@@H](CCC(=O)N[C@@H](CS)C(=O)NCC(=O)O)C(=O)O [glutathione]
serum ALT [1, 3]: significant decrease | serum AST [1, 3]: significant decrease | serum FFA (free fatty acid value) [1, 3]: significant decrease | serum T-cho (total cholesterol value) [1, 3]: significant decrease | serum TG (triglyceride value) [1, 3]: significant decrease | liver weight [1, 4]: the liver weight decreased dependently on the concentration | ratio of liver weight/body weight [1, 4]: decrease of the body weight ratio was also recognized | body weight ([1]; high-fat food mice, glutathione 6 or 60 mg/kg/day in water): decrease of the body weight was recognized | improvement of ALT after the administration versus before administration (0 wk) [2]: ≥ 20%
